# Tested on: HBV
# Assay: Inhibition of HBV replication dot-blot assay in HBV-producing hepatoma cell line
# Format: cell-based
# Conditions: Hepatitis B virus, 144 h; activity in Dot-Blot assay; HepG2-2.2.15 cells; reduction in HBV DNA levels, six days
# Protocol: Compounds active in the HBV assembly assay are tested for their activity and toxicity in cellular assay. In the first anti-viral assay, the ability of compounds to inhibit HBV replication in an HBV-producing hepatoma cell line using the dot-blot method is evaluated.
# (§1) Briefly, confluent monolayers of HepG2-2.2.15 cells are incubated with complete medium containing various concentrations of a test compound. Three days later, the culture medium is replaced with fresh medium containing the appropriately diluted test compound. Six days following the initial administration of the test compound, the cell culture supernatant is collected, and cell lysis is performed. The samples are applied onto Nylos membranes and DNA is immobilized to the membrane by UV cross-linking. After pre-hybridization, the HBV probe is added and the hybridization is performed overnight. The membranes are exposed to the KODAK films; antiviral activity is calculated from the reduction in HBV DNA levels (EC50). The EC50 for antiviral activity is calculated from the dose response curves of active compounds. Assay performance over time is monitored by the use of the standard positive control compounds ETV, BAY 41-4109, and HAP-1.
# Selected compounds are tested for their activity and toxicity in cellular assay. In the first anti-viral assay, the ability of compounds to inhibit HBV replication in an HBV-producing hepatoma cell line using the dot-blot method is evaluated.
# as §1, with “Confluent monolayers” for “Briefly, confluent monolayers”, “lysis was” for “lysis is”
row,SMILES,EC50
1,"O=C(Nc1ccc(F)c(Cl)c1)c1ccc(F)c(SC2CCCCC2F)c1 (racemic) [Compound 72, (±)-N-(3-Chloro-4-fluorophenyl)-4-fluoro-3-((2-fluorocyclohexyl)thio)benzamide]",< 10 µM
2,"O=C(O)CC1CCC(Sc2cc(C(=O)Nc3cc(F)c(F)c(F)c3)ccc2F)C1 (racemic) [Compound 101, (±)-2-(3-((2-Fluoro-5-((3,4,5-trifluorophenyl)carbamoyl)phenyl)thio)cyclopentyl)acetic acid]",< 10 µM
3,"O=C(O)CC1CCC(Sc2cc(C(=O)Nc3ccc(F)c(Cl)c3)ccc2F)C1 (racemic) [Compound 102, (±)-2-(3-((5-((3-Chloro-4-fluorophenyl)carbamoyl)-2-fluorophenyl)thio)cyclopentyl)acetic acid]",< 10 µM
4,"O=C(O)CC1CCC(Sc2cc(C(=O)Nc3ccc(F)c(F)c3)ccc2F)C1 (racemic) [Compound 105, (±)-2-(3-((5-((3,4-Difluorophenyl)carbamoyl)-2-fluorophenyl)thio)cyclopentyl)acetic acid]",< 10 µM
5,"O=C(Nc1ccc(F)c(Cl)c1)c1ccnc(NS(=O)(=O)C2CCOC2)c1 (racemic) [Compound 161, (±)-N-(3-Chloro-4-fluorophenyl)-2-(tetrahydrofuran-3-sulfonamido)isonicotinamide]",< 10 µM
6,"O=C(Nc1ccc(F)c(Cl)c1)c1ccnc(NS(=O)(=O)C2CCCOC2)c1 (racemic) [Compound 179, (±)-N-(3-Chloro-4-fluorophenyl)-2-(tetrahydro-2H-pyran-3-sulfonamido)isonicotinamide]",< 10 µM
7,"O=C(Nc1ccc(F)c(Cl)c1)c1cccc(NS(=O)(=O)C2CCOC2)c1 (racemic) [Compound 202, (±)-N-(3-chloro-4-fluorophenyl)-3-(tetrahydrofuran-3-sulfonamido)benzamide]",< 10 µM
8,"O=C(Nc1ccc(F)c(Cl)c1)c1cccc(NS(=O)(=O)CC2CCCO2)c1 (racemic) [Compound 203, (±)-N-(3-chloro-4-fluorophenyl)-3-((tetrahydrofuran-2-yl)methylsulfonamido)benzamide]",< 10 µM
9,"COCC(C)S(=O)(=O)Nc1cccc(C(=O)Nc2ccc(F)c(Cl)c2)c1 (racemic) [Compound 204, (±)-N-(3-chloro-4-fluorophenyl)-3-(2-methoxy-1-methylethylsulfonamido)benzamide]",< 10 µM
10,"CC1OCCC1S(=O)(=O)Nc1cccc(C(=O)Nc2ccc(F)c(Cl)c2)c1 (racemic) [Compound 205, (±)-N-(3-chloro-4-fluorophenyl)-3-(2-methyltetrahydrofuran-3-sulfonamido)benzamide]",< 10 µM
11,"O=C(Nc1ccc(F)c(Cl)c1)c1cccc(NS(=O)(=O)C2CS(=O)(=O)CC2O)c1 (racemic) [Compound 206, (±)-N-(3-chloro-4-fluorophenyl)-3-(4-hydroxy-1,1-dioxidotetrahydrothiophene-3-sulfonamido)benzamide]",< 10 µM
12,"O=C(Nc1cc(F)c(F)c(F)c1)c1ccc(F)c(SC2CCCC2)c1 [Compound 3, 3-(Cyclopentylthio)-4-fluoro-N-(3,4,5-trifluorophenyl)benzamide]",< 10 µM
13,"CC(C)(C)Sc1cc(C(=O)Nc2cc(F)c(F)c(F)c2)ccc1F [Compound 5, 3-(tert-Butylthio)-4-fluoro-N-(3,4,5-trifluorophenyl)benzamide]",< 10 µM
14,"O=C(Nc1cc(F)c(F)c(F)c1)c1ccc(F)c(SCCO)c1 [Compound 7, 4-Fluoro-3-((2-hydroxyethyl)thio)-N-(3,4,5-trifluorophenyl)benzamide]",< 10 µM
15,"Cc1cc(NC(=O)c2ccc(F)c(SC3CCCCC3)c2)ccc1F [Compound 8, 3-(Cyclohexylthio)-4-fluoro-N-(4-fluoro-3-methylphenyl)benzamide]",< 10 µM
16,"Cc1cc(NC(=O)c2ccc(F)c(SC3CCCC3)c2)ccc1F [Compound 9, 3-(Cyclopentylthio)-4-fluoro-N-(4-fluoro-3-methylphenyl)benzamide]",< 10 µM

row,SMILES,EC50
1,"O=C(Nc1cc(F)c(F)c(F)c1)c1ccc(F)c(SCCCO)c1 [Compound 17, 4-Fluoro-3-((3-hydroxypropyl)thio)-N-(3,4,5-trifluorophenyl)benzamide]",< 10 µM
2,"CC(C)(O)CCSc1cc(C(=O)Nc2cc(F)c(F)c(F)c2)ccc1F [Compound 19, 4-Fluoro-3-((3-hydroxy-3-methylbutyl)thio)-N-(3,4,5-trifluorophenyl)benzamide]",< 10 µM
3,"O=C(Nc1cc(F)c(F)c(F)c1)c1ccc(F)c(SCCCCO)c1 [Compound 23, 4-Fluoro-3-((4-hydroxybutyl)thio)-N-(3,4,5-trifluorophenyl)benzamide]",< 10 µM
4,"O=C(Nc1ccc(F)c(Cl)c1)c1ccc(F)c(SCCO)c1 [Compound 26, N-(3-Chloro-4-fluorophenyl)-4-fluoro-3-((2-hydroxyethyl)thio)benzamide]",< 10 µM
5,"O=C(Nc1ccc(F)c(Cl)c1)c1ccc(F)c(SCCCO)c1 [Compound 27, N-(3-Chloro-4-fluorophenyl)-4-fluoro-3-((3-hydroxypropyl)thio)benzamide]",< 10 µM
6,"O=C(Nc1ccc(F)c(Cl)c1)c1ccc(F)c(SCC2CCOCC2)c1 [Compound 47, N-(3-Chloro-4-fluorophenyl)-4-fluoro-3-(((tetrahydro-2H-pyran-4-yl)methyl)thio)benzamide]",< 10 µM
7,"O=C(Nc1cc(F)c(F)c(F)c1)c1c[nH]c(=O)c(SC2CCCC2)c1 [Compound 48, 5-(Cyclopentylthio)-6-oxo-N-(3,4,5-trifluorophenyl)-1,6-dihydropyridine-3-carboxamide]",< 10 µM
8,"CC(C)(Sc1cc(C(=O)Nc2ccc(F)c(Cl)c2)ccc1F)C(=O)O [Compound 51, 2-((5-((3-Chloro-4-fluorophenyl)carbamoyl)-2-fluorophenyl)thio)-2-methylpropanoic acid]",< 10 µM
9,"O=C(Nc1ccc(F)c(Cl)c1)c1ccc(F)c(SC2CCCCCC2)c1 [Compound 52, N-(3-Chloro-4-fluorophenyl)-3-(cycloheptylthio)-4-fluorobenzamide]",< 10 µM
10,"O=C(Nc1ccc(F)c(Cl)c1)c1ccc(F)c(SCC2COC2)c1 [Compound 60, N-(3-Chloro-4-fluorophenyl)-4-fluoro-3-((oxetan-3-ylmethyl)thio)benzamide]",< 10 µM
11,"O=C(Nc1ccc(F)c(Cl)c1)c1ccc(F)c(SC2COC2)c1 [Compound 65, N-(3-Chloro-4-fluorophenyl)-4-fluoro-3-(oxetan-3-ylthio)benzamide]",< 10 µM
12,"COc1ccc(C(=O)Nc2ccc(F)c(Cl)c2)cc1SC1CCCCC1 [Compound 69, N-(3-Chloro-4-fluorophenyl)-3-(cyclohexylthio)-4-methoxybenzamide]",< 10 µM
13,"COc1ccc(C(=O)Nc2ccc(F)c(F)c2)cc1SC1CCCCC1 [Compound 80, 3-(Cyclohexylthio)-N-(3,4-difluorophenyl)-4-methoxybenzamide]",< 10 µM
14,"O=C(Nc1cc(F)c(F)c(F)c1)c1ccnc(NS(=O)(=O)C2CC2)c1 [Compound 127, 2-(Cyclopropanesulfonamido)-N-(3,4,5-trifluorophenyl)isonicotinamide]",< 10 µM
15,"O=C(Nc1ccc(F)c(F)c1)c1ccnc(NS(=O)(=O)C2CC2)c1 [Compound 128, 2-(Cyclopropanesulfonamido)-N-(3,4-difluorophenyl)isonicotinamide]",< 10 µM

# Reference: patent EP3227262B1, “SULFIDE ALKYL AND PYRIDYL REVERSE SULFONAMIDE COMPOUNDS FOR HBV TREATMENT” (Novira Therapeutics Inc., priority 2014, dated 2016)
